Reference: patent US12600740B2, “Fluorinated N-acetyl glucosamine analogs and xylose derivatives” (UTI Limited Partnership, priority 2018, dated 2026)

The molecules below were run on oligodendrocyte precursor cells (OPCs) (assay: Growth of OPCs on astrocyte-secreted extracellular matrix). Conditions: OPCs on inhibitory astrocyte matrix; significance class.
Assay type: cell-based, mouse
From the text: The process of remyelination requires oligodendrocyte lineage cells to undergo process outgrowth prior to their expression of mature myelin proteins for repair. Thus, process outgrowth in culture by cells of the oligodendrocyte lineage has been used as one surrogate for myelinating potential in vivo [Keough, M. B.; Rogers, J. A.; Zhang, P.; Jensen, S. K.; Stephenson, E. L.; Chen, T.; Hurlbert, M. G.; Lau, L. W.; Rawji, K. S.; Plemel, J. R. et al. An inhibitor of chondroitin sulfate proteoglycan synthesis promotes central nervous system remyelination. Nat. Commun. 2016, 7, 11312], since an oligodendrocyte needs to elaborate multiple protrusions emanating in several directions to contact many axons, and where these processes then compact around axons to form myelin segments. The presence of CSPGs in culture impairs the process outgrowth of OPCs, and this has been linked to reduced remyelination capacity in vivo [Keough, M. B.; Rogers, J. A.; Zhang, P.; Jensen, S. K.; Stephenson, E. L.; Chen, T.; Hurlbert, M. G.; Lau, L. W.; Rawji, K. S.; Plemel, J. R. et al. An inhibitor of chondroitin sulfate proteoglycan synthesis promotes central nervous system remyelination. Nat. Commun. 2016, 7, 11312]. It was reported previously that astrocytes in culture produce a plate-bound matrix abundant in CSPGs, that is left behind once astrocytes are removed from the plate, and this CSPG-containing matrix inhibits the outgrowth of plated OPCs [Keough, M. B. et al. An inhibitor of chondroitin sulfate proteoglycan synthesis promotes central nervous system remyelination. Nature communications 7, 11312 (2016)] (FIG. 7a). Thus, astrocytes were treated with test compounds for 48 hours and they were then removed from the cell culture plate leaving only their secreted ECM behind (FIG. 7a). When OPCs were plated on the astrocyte matrix, the extent of their process outgrowth over […] of observation was inhibited (FIG. 7b). […] OPCs growing in the absence of astrocyte ECM can reach a mean outgrowth around 300 μm (FIG. 7b,c). […] These compounds were: Ac-4,4-diF-GlcNAc 16 (Ac-4,4-diF-GlcNAc), fluorosamine 3 and its O1-deacetylated analog 10 (Ac-4-F-GlcNAcOH), anomeric O-propanoate 7, anomeric O-butanoate 8 (Ac-4-F-GlcNAcOBu), and the 4-fluorinated GalNAc derivative 13 (Ac-4-F-GalNAc) (FIG. 7c).
In brief, cortices from postnatal days 1-3 mouse brains were dissociated with papain digestion and then plated as a mixed culture for 7 days in a 37° C. incubator at 8.5% CO2 whereupon OPCs and microglia tended to be loosely attached on top of a monolayer of astrocytes; the OPCs and microglia were then shaken off when placed on an orbital shaker at 220 r.p.m. at 37° C. and 5% CO2 overnight. The media containing microglia and OPCs were collected and added to a 100 mm tissue culture dish and left at 37° C. and 5% CO2 for 30 min, to allow preferential adhesion of microglia. The media were collected again, now containing OPCs, and used as the OPC-enriched isolates for experiments. For the remaining adhered cells, largely astrocytes, these were removed with 0.25% trypsin and after centrifugation and washing, these astrocytes were plated at a density of 1.0×10^5 cells in flat bottom 96-well plates coated with 10 μg/ml poly-L-lysine. Cells were grown for 7 days at 37° C. and 5% CO2 in MGM and daily media changes. Astrocytes were carefully removed with EDTA treatment (0.2 g EDTA (Na4) per liter PBS, 30 minutes at 37° C. and 5% CO2) and mechanical dislodgement with a micropipetter. The remaining ECM left behind was covered with PBS at 4° C. until OPCs were seeded. Enriched OPCs from mixed glial cultures were seeded at a density of 5-10×10^4 cells per well in OPC media and grown at 37° C. and 8.5% CO2 for 18-24 h and then were fixed with 4% ice-cold paraformaldehyde at 4° C. for 10 min, rinsed with PBS, and stored at 4° C. until immunocytochemistry. […]

Compound	Enhance OPC outgrowth
CC(=O)N[C@H]1[C@H](OC(C)=O)O[C@H](COC(C)=O)[C@@H](OC(C)=O)[C@@H]1OC(C)=O [Compound 1, reference compound]	n.s.
CC(=O)NC1C(OC(C)=O)OC(COC(C)=O)[C@@H](F)C1OC(C)=O (stereo partly drawn) [Compound 3, reference compound]	** (**p < 0.01)
CCCC(=O)OC[C@H]1OC(O)[C@H](NC(C)=O)[C@@H](OC(=O)CCC)[C@@H]1F (stereo partly drawn) [Compound 12, 2-Acetamido-3,6-di-O-butanoyl-2,4-dideoxy-4-fluoro-α/β-3-D-glucopyranose]	n.s.

Same assay, conditions: astrocytes treated 48 hours, then removed; OPCs plated on matrix

Compound	mean process outgrowth of OPCs on astrocyte ECM
CCCC(=O)OC1OC(COC(C)=O)[C@@H](F)[C@H](OC(C)=O)C1NC(C)=O (mixture of isomers) [Compound 8, 2-Acetamido-3,6-di-O-acetyl-1-O-butanoyl-2,4-dideoxy-4-fluoro-α/β-D-glucopyranose]	effective at improving mean outgrowth of OPCs
CC(=O)NC1C(O)OC(COC(C)=O)[C@@H](F)[C@@H]1OC(C)=O (mixture of isomers) [Compound 10]	effective at improving mean outgrowth of OPCs
CC(=O)NC1C(OC(C)=O)OC(COC(C)=O)[C@H](F)[C@@H]1OC(C)=O (mixture of isomers) [Compound 13, 2-Acetamido-1,3,6-tri-O-acetyl-2,4-dideoxy-4-fluoro-α/β-D-galactopyranose]	effective at improving mean outgrowth of OPCs
CC(=O)NC1C(OC(C)=O)OC(COC(C)=O)C(F)(F)[C@@H]1OC(C)=O (mixture of isomers) [Compound 16, 2-Acetamido-1,3,6-tri-O-acetyl-2,4-dideoxy-4,4-difluoro-α/β-D-xylo-hexopyranose]	effective at improving mean outgrowth of OPCs
CC(=O)NC1C(OC(C)=O)OC(COC(C)=O)[C@@H](F)C1OC(C)=O (stereo partly drawn) [Compound 3, reference compound]	effective at improving mean outgrowth of OPCs
CCC(=O)OC1OC(COC(C)=O)[C@@H](F)[C@H](OC(C)=O)C1NC(C)=O (stereo partly drawn) [Compound 7, 2-Acetamido-3,6-di-O-acetyl-2,4-dideoxy-4-fluoro-1-O-propanoyl-α/β-D-glucopyranose]	effective at improving mean outgrowth of OPCs
